The values that follow come from ChEMBL document CHEMBL3507680, “University of Dundee, Gates Library screen for HepG2 cell viability”.

SMILES strings stand for the structures.

The data set is described as follows: Human HepG2 cell viability assay in 384 well format. The format is toxicity, cell-based. The conditions noted are these: HepG2 cells, read-out: Inhibition. Details: dose 125 nL, time 70.5 hour; concentration not given beside the values.

Take `CC(CN1CCCCCC1)NCc1cc(-c2ccco2)on1` (stereo not given): the cytotoxicity at 70.5 h was -12.2%.
The same measure for `CN1CCN(Cc2cnn(-c3ccccc3Cl)c2)[C@H]2CS(=O)(=O)C[C@H]21`: -5.22%.
The same measure for `Cc1noc(C)c1CCCNC(=O)Nc1ccc2c(c1)COC2`: 7.04%; for `Cc1nc[nH]c1CN1CCN(C(=O)C2CC2)[C@H]2CS(=O)(=O)C[C@H]21`: -12.6%; for `Cc1c(C(=O)NCC2CCN(C)C2)n(C)c2c(C)cccc12` (stereo not given): -7.34%.
The result for `Cc1nc(CN2CCN(c3nc4c(s3)c(C)nn4C)CC2)cs1` reads -3.02%; that for `Cc1nn(C)c(C)c1CN(C)c1nc(C2CCCC2)nc2c1cnn2C`, 8.68%; that for `CS(=O)(=O)N1CC[C@@H]2[C@@H](CCC(=O)N2CCC2=CCCCC2)C1`, 16.1%.
In the case of `Cn1ccnc1SCCNC(=O)Cn1cnc2ccccc2c1=O`, the cytotoxicity at 70.5 h amounted to 1.77%.
The same measure for `Cc1cc2ccccc2n1CCC(=O)NCCS(C)(=O)=O`: -10.9%; for `CCC(CO)N(Cc1cccc(O)c1)Cc1ccccc1C` (stereo not given): -5.23%; for `O=C(CCn1ccccc1=O)N1CCCC(COc2ccc(F)cc2)C1` (stereo not given): -7.1%.
The same measure for `CCOc1ccccc1CC(=O)N1C[C@@H](C(=O)O)[C@H](C2CC2)C1`: -1.88%.
The same measure for `CN1CCC(CNC(=O)c2ccc3cccc(Cl)c3n2)C1` (stereo not given): -6.3%.
With `CCn1nc(C)c(C(C)NC(=O)c2cnc(N(C)C)nc2C)c1C` (stereo not given), the cytotoxicity at 70.5 h is 1.08%.
The same measure for `CCN(C)C[C@@H]1CN(C(=O)c2cc(-c3ccc(F)cc3)n[nH]2)C[C@@H]1CO`: -4.68%; for `CC(C)[C@@H]1CN(C(=O)NCc2ccco2)C[C@H]1N(C)C`: -5.48%; for `CN(CCO)C[C@@H]1CN(C2CCN(c3ccccc3Cl)CC2)C[C@@H]1CO`: -10.1%.
The result for `CCOc1ccc(Cl)cc1C(C(=O)O)N1CCOCC1` (stereo not given) reads -4.12%.
The same measure for `CC(C)c1cc(NCC2(N(C)C)CCCC2)ncn1`: -2.85%; for `CN(C)CCNC(=O)CCC1CCN(C(=O)c2ccc(Cl)cc2O)CC1`: -8.44%; for `COc1ccc(C(=O)N2CCC(Oc3cccc(C)c3)(C(=O)O)CC2)o1`: 5.99%.
For the compound `COc1cccc(CN(C)C(C)c2ccon2)c1OCCn1ccnc1` (stereo not given), the cytotoxicity at 70.5 h was -19.9%.
The same measure for `Cc1cccn2c(CC(=O)N3CCC(CCn4cccn4)CC3)cnc12`: 13.1%; for `COCCN(C)C(C(=O)O)c1ccc(Cl)c(F)c1` (stereo not given): -5.39%; for `Cc1nn(C)c2nc(N3CCC(C(O)c4ccccn4)CC3)sc12` (stereo not given): -0.933%.
The same measure for `CN1CC2(CCN(C(=O)Cn3ncc4ccccc4c3=O)CC2)OC1=O`: -13.8%; for `C=C(C)COc1cccc(CN(C)C(C)c2nccs2)c1` (stereo not given): -4%.
The result for `CN(Cc1n[nH]c2c1CCCC2)c1cc(N2CCOCC2)nc(N)n1` reads -8.11%.
`Cc1cccc(CN2CCN(C(=O)c3cnc(C)[nH]c3=O)CC2)c1`: the cytotoxicity at 70.5 h came out at 12.7%.
The same measure for `Cc1cc(C)c2c(N3CCN(CCN4CCOCC4)CC3)ncnc2n1`: 16.3%; for `COc1ccccc1OC1(C(=O)O)CCN(c2ncccc2F)CC1`: -7.34%.
The result for `O=C(O)CCc1cc2n(n1)CCCN(C(=O)c1ccc(F)cc1F)C2` reads -0.277%; that for `Cc1cc(NC(C)c2n[nH]c(C)n2)n2nc(C)c(C)c2n1` (stereo not given), 20%.
For the compound `Cc1cccc(-n2cc(CNc3ncnc4c3CCNCC4)cn2)c1`, the cytotoxicity at 70.5 h is -10.3%.
For the compound `CN(C)C(=O)CCC1CCCN(Cc2cccc(-c3ccccn3)c2)C1` (stereo not given), the cytotoxicity at 70.5 h worked out at 12.2%.
The result for `NC(=O)c1cccnc1N1C[C@@H]2CC[C@H](C1)N(Cc1ccccn1)C2=O` reads 5.12%; that for `Cc1cc(C)c2[nH]c(C(=O)NCCN3CCCC3=O)c(C)c2c1`, 23.6%; that for `COc1ccc2c(c1)CC(C(=O)N(C)CCCc1cnn(C)c1)CO2` (stereo not given), -8.48%.
The result for `CN1C[C@@H](N)C[C@H]1C(=O)N1CCC(CCCc2ccccc2)CC1` reads -0.968%; that for `Cc1nc2c(c(N3CCC(O)(CN4CCCC4)CC3)n1)CCN(C)CC2`, -3.57%; that for `Cc1cccc2[nH]c(COCC(=O)N3CCCn4cncc4C3)nc12`, -6.34%.
As for `CCN(Cc1nccn1C)C(=O)c1ccc(NCc2ccccc2)nc1`, the cytotoxicity at 70.5 h was -2.21%.
The same measure for `O=C(O)c1cnc(-c2cccc3c2CCNC3)c(Cl)c1`: -11.1%; for `CCNC(=O)[C@@H]1C[C@@H](NC(=O)CSC)CN1Cc1ccncc1`: -10.5%.
The same measure for `COc1ccc(Oc2cccnc2)cc1CN1CCCC1`: 28.5%; for `NC(=O)c1ccc(C2CCCN2C(=O)CCn2nnc3ccccc32)s1` (stereo not given): -4.98%; for `CCC[C@H]1CN(Cc2ccccc2C#N)C[C@@H]1NS(C)(=O)=O`: -6.89%.
The same measure for `COCc1cc(CNCc2c(C)n(CC(C)C)c3ccccc23)n[nH]1`: -11%; for `Cc1ccccc1CN1CCC(CNc2ncnc3c2CCNCC3)C1` (stereo not given): 1.87%; for `CN(C)c1ccnc(-c2ccnc3c2ccn3C)n1`: -5.41%.
For `CC(C)[C@H]1CN(Cc2c[nH]nn2)C[C@@H]1NC(=O)C1CCOCC1`, the cytotoxicity at 70.5 h was -0.972%.
In the case of `Cc1cc2nc(C(=O)NCc3cccnc3N(C)C)cc(C)n2n1`, the cytotoxicity at 70.5 h was determined as 3.6%.
As for `CN1CC2(CCN(C(=O)c3coc4c3C(=O)CCC4)C2)OC1=O` (stereo not given), the cytotoxicity at 70.5 h was -6.28%.
The same measure for `COCC(C)N1CCc2onc(-c3ccc(F)c(F)c3)c2C1` (stereo not given): -1.71%; for `O=C(Cn1ccc(=O)cc1)N1C[C@H]2CC[C@@H]1CN(c1ncccn1)C2`: -8.59%; for `O=C(N1CCOCC1)N1CCc2[nH]nc(COc3cccc(Cl)c3)c2C1`: -2.78%.
The result for `CC(=O)N1CCCN(C(C(=O)O)c2cccc(C)c2C)CC1` (stereo not given) reads -12.3%; that for `Cc1ccc(C(=O)N2CCc3ncccc3C2)cc1N1CCNC1=O`, 0.999%.
The same measure for `CO[C@H]1C[C@@H](O)C12CCN(CCOc1ccc(Cl)cc1)CC2`: -1.42%; for `CC(C)N(Cc1nc(-c2cccs2)no1)CC1CCC(=O)N1` (stereo not given): -11.1%; for `Cc1nccc(N[C@H]2CN(CCC(=O)NC3CCCC3)C[C@@H]2C2CC2)n1`: -2.83%.
Consider `CC(C)=CCN1CC2(CCN(Cc3ncc[nH]3)CC2)CC1=O`, for which the cytotoxicity at 70.5 h amounted to 11.6%.
The result for `Cc1cc(-c2cnn(C)c2)ccc1OCC(N)=O` reads -2.62%.
As for `COc1ccc(C(C(=O)O)N(C)CCN2CCCC2)cc1F` (stereo not given), the cytotoxicity at 70.5 h was -9.88%.
On to `CCn1nc(CC(C)C)cc1C(=O)N1CCN([C@H]2CCCC[C@@H]2O)CC1`, for which the cytotoxicity at 70.5 h was -2.99%.
Consider `COc1cc(CN2CCCC(Nc3cccc(F)c3)C2)cc(Cl)c1O` (stereo not given), for which the cytotoxicity at 70.5 h stood at 6.37%.
The same measure for `Cc1cc(C)c2[nH]c(C(=O)NCCN3CCOC3=O)c(C)c2c1`: 1.29%; for `CN(CCO)C[C@@H]1CN(C(=O)c2cccc(OC(F)F)c2)C[C@@H]1CO`: -5.3%; for `COCC(Nc1nc(N(C)C)nc2c1CCNCC2)c1ccccn1` (stereo not given): 4.09%.
The result for `c1cn(-c2ccc(CN3CCCC3)cc2)c(-c2cc3n(n2)CCNC3)n1` reads -6.8%; that for `OC1(CNCCc2csc(-c3ccncc3)n2)CCCNC1` (stereo not given), -5.37%.
The result for `CN(Cc1cnccn1)C(=O)c1ccc(CSc2nnc[nH]2)o1` reads -20.7%; that for `COCC(c1ccccn1)N(C)C(=O)c1cc(-c2cccn2C)n[nH]1` (stereo not given), -10.6%; that for `Cc1cc(CNCC2(O)CCCN(CCCc3ccccc3)C2=O)n[nH]1` (stereo not given), -5.17%.
`c1cncc(CN(Cc2ccsc2)Cc2ccc(C3CCCCO3)o2)c1` (stereo not given): the cytotoxicity at 70.5 h was 6.4%.
In the case of `O=C(c1cc(COc2ccc3c(c2)OCO3)[nH]n1)N1CCSCC1`, the cytotoxicity at 70.5 h is -0.532%.
For `O=C(CN1CCOC1=O)N1CCC2(CCc3ccccc32)CC1`, the cytotoxicity at 70.5 h is 7.69%.
The result for `Cc1cnc(C(=O)N2CC(=O)N(c3ccccc3Cl)CC2C)cn1` (stereo not given) reads -6.52%.
The same measure for `Cc1nc(C(C)C)sc1CNC(=O)CCCN1CCCCC1`: 30.6%.
On to `CN1CCc2[nH]nc(C(=O)N3CCC4(CN(C)C(=O)O4)C3)c2C1` (stereo not given), for which the cytotoxicity at 70.5 h was -6.62%.
Take `O=C(CN1CC(c2ccccc2)CC1=O)N1CCC(c2ncc[nH]2)CC1` (stereo not given): the cytotoxicity at 70.5 h was -4.48%.
Regarding `Cc1ncsc1CCC(=O)N1CCCC1c1cccnc1` (stereo not given), the cytotoxicity at 70.5 h was -6.95%.
The result for `Cc1cccc(C)c1OC1CN(Cc2cnc(N3CCOCC3)nc2)C1` reads -7%; that for `CSc1ccc(C(=O)C2CCCN(C(=O)CCn3cnnn3)C2)cc1` (stereo not given), 14.5%.
The same measure for `O=C(c1cc(-c2ccco2)nc2c(Cl)cccc12)N1C[C@H]2CNC[C@H]2C1`: -6.09%.
The same measure for `c1ccc2sc(N3CCCC4(CCOC4)C3)nc2c1` (stereo not given): -2.11%; for `Cc1cnn(CCC(=O)N2CCN(C(=O)C3CC3)[C@@H]3CS(=O)(=O)C[C@@H]32)c1`: -5.71%.
Turning to `Cc1ccc(C(=O)N2CCC(C(F)(F)F)CC2)cc1N1CCNC1=O`, the cytotoxicity at 70.5 h stood at 4.91%.
The result for `CCn1nc(C(=O)N2CCNCC2C(=O)Nc2ccc(C)nc2)cc1C` (stereo not given) reads 3.8%; that for `Fc1ccc(N2CCCN(c3ccc(Cn4ccnc4)cn3)CC2)cc1`, 2.18%.
The same measure for `COC(=O)[C@@H]1C[C@H](NC(=O)c2cc(=O)[nH]c3ccc(C)cc23)CN1C`: -13%; for `O=C(c1ccccn1)N1CCc2c(nc(-c3ccncc3)[nH]c2=O)C1`: -6.64%.
The same measure for `CN(CC(O)CO)C(=O)c1coc(COc2cccc(F)c2)n1` (stereo not given): 8.53%.
`CN1CCC(N2CCCC(C(=O)N3Cc4ccccc4C3)C2)CC1` (stereo not given): the cytotoxicity at 70.5 h is -14.7%.
